# Assay: Example 3: phase 3 trial, enavogliflozin 0.3 mg vs dapagliflozin 10 mg once a day for 24 weeks added to metformin and gemigliptin in patients with type 2 diabetes (same endpoints, rescue drug)
# Assay type: in vivo, human
# Description: 1) when Metformin (≥1,000 mg/Day) was Administered at a Constant Dose for at Least 8 Weeks Prior to Pre-Visit (Pre-Screening) • Metformin (≥1,000 mg/day) and gemigliptin (50 mg/day) were co-administered during the 8-week stabilization period. […] 4) when Metformin (≥1,000 mg/Day) and Gemigliptin (50 mg/Day) were Co-Administered at Constant Doses for at Least 8 Weeks Prior to Pre-Visit (Prescreening) • Without a separate stabilization period, Pre-visit (pre-screening) was Visit 1 (screening).
# Subjects who met the inclusion/exclusion criteria continued to receive metformin and gemigliptin while receiving a placebo of the clinical trial drug in a single-blind (subject-blinded) state for a 2-week run-in period.
# Here, the randomized subjects were stratified according to the administration therapy (co-administration with two or less agents (one or two agents) or three or more agents) of a conventional hypoglycemic agent (before washout of another hypoglycemic agent) within 24 weeks prior to obtaining written informed consent and by an HbA1c value (<8% or ≥8%) at Visit 1 (screening) measured in the central laboratory.
# The randomized subjects were administered two tablets of the clinical trial drug corresponding to each administration group once a day, and then visited the institution at weeks 6, 12, 18, and 24 during the 24-week administration period to conduct efficacy and safety assessments. In addition, during the clinical trial period, they were instructed to exercise regularly and control their diet without changing their daily life patterns.
# • 1) Change in HbA1c at week 24 after administration of clinical trial drug compared to Visit 2 (randomization)
# • 1) Change in HbA1c at each time point of weeks 6, 12, and 18 after administration of clinical trial drug compared to Visit 2 (randomization) • 2) Change in FPG at each time point of weeks 6, 12, 18, and 24 after administration of clinical trial drug compared to Visit 2 (randomization) • 3) Proportion of subjects achieving HbA1c<7% at each time point of weeks 6, 12, 18, and 24 after administration of clinical trial drug • 4) Proportion of subjects achieving HbA1c<6.5% at each time point of weeks 6, 12, 18, and 24 after administration of clinical trial drug • 5) Proportion of subjects achieving therapeutic response (HbA1c change (HbA1c at Visit 2—HbA1c at each evaluation time point)>0.5% or HbA1c<7% at each evaluation time point compared to Visit 2 (randomization)) at each time point of weeks 6, 12, 18, and 24 after administration of clinical trial drug • 6) Proportion of subjects achieving therapeutic response (HbA1c change (HbA1c at Visit 2—HbA1c at each evaluation time point)>0.7% or HbA1c<7% at each evaluation time point compared to Visit 2 (randomization)) at each time point of weeks 6, 12, 18, and 24 after administration of clinical trial drug • 7) Proportion of subjects achieving therapeutic response (HbA1c change (HbA1c at Visit 2—HbA1c at each evaluation time point)>1% or HbA1c<7% at each evaluation time point compared to Visit 2 (randomization)) at each time point of weeks 6, 12, 18, and 24 after administration of clinical trial drug
# [1] = week 6, modified per-protocol set 1, enavogliflozin 0.3 mg vs dapagliflozin 10 mg
# [2] = week 6, modified per-protocol set 1, enavogliflozin 0.3 mg, dapagliflozin 10 mg
structure (smiles),measurement,setting,value
"OC[C@H]1O[C@@H](c2cc(Cc3ccc(C4CC4)cc3)c(Cl)c3c2CCO3)[C@H](O)[C@@H](O)[C@@H]1O [Enavogliflozin, (2S,3R,4R,5S,6R)-2-(7-chloro-6 (4-cyclopropylbenzyl)-2,3-dihydrobenzofuran-4-yl)-6-(hydroxymethyl)tetrahydro-2H-pyran-3,4,5-triol]",Incidence of adverse events or adverse drug reactions between groups,"24 weeks, vs dapagliflozin",no statistically significant differences
same,"HbA1c, Mean (SD)","Baseline, PPS",7.79%
same,"HbA1c, Median","Baseline, PPS",7.60%
same,Non-inferiority (margin 0.35),"HbA1c change at week 24, vs dapagliflozin",not inferior
same,"HbA1c change from baseline, ANCOVA LS mean (SE)","Week 24, PPS",−0.92 % p
same,"HbA1c change from baseline, Mean (SD)","Week 24, PPS",−0.93 % p
same,"HbA1c change from baseline, Median","Week 24, PPS",−0.83 % p
same,"HbA1c, Mean (SD)","Week 24, PPS",6.86%
same,"HbA1c, Median","Week 24, PPS",6.76%
same,"HbA1c change from baseline, LS mean difference","Week 24, PPS, enavogliflozin minus dapagliflozin",−0.06 % p
same,Non-inferiority (UCI < 0.35%) in HbA1c change,"Week 24, PPS, enavogliflozin vs dapagliflozin",Yes
same,"FPG change from baseline, LS mean (SE)",week 6,−25.96(1.42) mg/dL
same,"HDL-C change from baseline, LS mean (SE)",week 6,1.96(0.57) mg/dL
same,"HOMA-IR change from baseline, LS mean (SE)",week 6,−0.94(0.15)
same,"HOMA-β change from baseline, LS mean (SE)",week 6,8.13(3.08)
same,"HbA1c change from baseline, LS mean (SE)",week 6,−0.73(0.03) % p
same,"LDL-C change from baseline, LS mean (SE)",week 6,2.49(1.81) mg/dL
same,"UACR change from baseline, LS mean (SE)",week 6,−8.76(3.43) g/kg
same,"UGCR change from baseline, LS mean (SE)",week 6,58.10(2.18) mg/mg
same,"adiponectin change from baseline, LS mean (SE)",week 6,−0.10 (0.34) μg/mL
same,"body weight change from baseline, LS mean (SE)",week 6,−1.92(0.17) kg
same,"diastolic blood pressure change from baseline, LS mean (SE)",week 6,−2.04(0.70) mmHg
same,"fasting C-peptide change from baseline, LS mean (SE)",week 6,−0.05(0.02) ng/mL
same,"leptin change from baseline, LS mean (SE)",week 6,−1.83(0.45) ng/mL
same,"systolic blood pressure change from baseline, LS mean (SE)",week 6,−2.76(0.90) mmHg
same,"total cholesterol change from baseline, LS mean (SE)",week 6,5.07 (1.97) mg/dL
same,"triglyceride change from baseline, LS mean (SE)",week 6,−6.85(4.47) mg/dL
same,"FPG change from baseline, LS mean difference","week 6, vs dapagliflozin",-3.24 mg/dL
same,"HDL-C change from baseline, LS mean difference","week 6, vs dapagliflozin",0.83 mg/dL
same,"HOMA-IR change from baseline, LS mean difference","week 6, vs dapagliflozin",0.05
same,"HOMA-β change from baseline, LS mean difference","week 6, vs dapagliflozin",4.93
same,"HbA1c change from baseline, LS mean difference","week 6, vs dapagliflozin",−0.03 % p
same,"LDL-C change from baseline, LS mean difference","week 6, vs dapagliflozin",0.57 mg/dL
same,Odds ratio for achieving HbA1c<6.5%,"week 6, vs dapagliflozin",0.65
same,Odds ratio for achieving HbA1c<7%,"week 6, vs dapagliflozin",1.22
same,"Odds ratio, therapeutic response (HbA1c change >0.5% or HbA1c<7%)","week 6, vs dapagliflozin",1.52
same,"Odds ratio, therapeutic response (HbA1c change >0.7% or HbA1c<7%)","week 6, vs dapagliflozin",1.16
same,"Odds ratio, therapeutic response (HbA1c change >1% or HbA1c<7%)","week 6, vs dapagliflozin",1.38
same,"UACR change from baseline, LS mean difference","week 6, vs dapagliflozin",6.09 g/kg
same,"UGCR change from baseline, LS mean difference","week 6, vs dapagliflozin",12.35 mg/mg
same,"adiponectin change from baseline, LS mean difference","week 6, vs dapagliflozin",-0.47 µg/mL
same,"body weight change from baseline, LS mean difference","week 6, vs dapagliflozin",-0.13 kg
same,"diastolic blood pressure change from baseline, LS mean difference","week 6, vs dapagliflozin",−0.16 mmHg
same,"fasting C-peptide change from baseline, LS mean difference","week 6, vs dapagliflozin",-0.01 ng/mL
same,"leptin change from baseline, LS mean difference","week 6, vs dapagliflozin",0.20 ng/mL
same,"systolic blood pressure change from baseline, LS mean difference","week 6, vs dapagliflozin",0.73 mmHg
same,"total cholesterol change from baseline, LS mean difference","week 6, vs dapagliflozin",2.45 mg/dL
same,"triglyceride change from baseline, LS mean difference","week 6, vs dapagliflozin",-1.46 mg/dL
same,"Change from baseline in HDL-C, ANCOVA LS mean difference",[1],0.83 mg/dL
same,"Change from baseline in LDL-C, ANCOVA LS mean difference",[1],0.57 mg/dL
same,"Change from baseline in total cholesterol, ANCOVA LS mean difference",[1],2.45 mg/dL
same,"Change from baseline in triglycerides, ANCOVA LS mean difference",[1],-1.46 mg/dL
same,"Change from baseline in HDL-C, ANCOVA LS mean",[2],1.96 mg/dL
same,"Change from baseline in HDL-C, Mean",[2],1.90 mg/dL
same,"Change from baseline in HDL-C, Median",[2],2.00 mg/dL
same,"Change from baseline in LDL-C, ANCOVA LS mean",[2],2.49 mg/dL
same,"Change from baseline in LDL-C, Mean",[2],2.42 mg/dL
same,"Change from baseline in LDL-C, Median",[2],-1.00 mg/dL
same,"Change from baseline in total cholesterol, ANCOVA LS mean",[2],5.07 mg/dL
same,"Change from baseline in total cholesterol, Mean",[2],4.65 mg/dL
same,"Change from baseline in total cholesterol, Median",[2],3.00 mg/dL
same,"Change from baseline in triglycerides, ANCOVA LS mean",[2],-6.85 mg/dL
same,"Change from baseline in triglycerides, Mean",[2],-4.37 mg/dL
same,"Change from baseline in triglycerides, Median",[2],-1.00 mg/dL
same,"Fasting HDL-C, Mean",[2],47.99 mg/dL
same,"Fasting HDL-C, Median",[2],46.00 mg/dL
same,"Fasting LDL-C, Mean",[2],73.35 mg/dL
same,"Fasting LDL-C, Median",[2],68.00 mg/dL
same,"Fasting total cholesterol, Mean",[2],138.43 mg/dL
same,"Fasting triglycerides, Mean",[2],112.71 mg/dL
same,"Fasting triglycerides, Median",[2],101.00 mg/dL
same,"fasting Total cholesterol, Median",[2],134.00 mg/dL

# Reference: patent publication US20260130933A1, “PHARMACEUTICAL COMPOSITION FOR PREVENTION OR TREATMENT OF NEPHROPATHY AND/OR DIABETES MELLITUS, COMPRISING ENAVOGLIFLOZIN” (DAEWOONG PHARMACEUTICAL CO., LTD., priority 2022, published 2026)
